Measurements taken from US20100285141A1, “COMPOSITIONS AND METHODS FOR ENHANCING THE ACTIVITY OF PODOPHYLLOTOXIN” (DO-COOP TECHNOLOGIES LTD., priority 2008, published 2010).

Key:
[1] = tested on: PC3 prostate cancer cells; assay: Etoposide in Neowater or deionized water, surviving cells by XTT dye uptake, PC3; assay type: cell-based, human; conditions: PC3, 24 hours incubation, FIG. 1B
Text: (§1) Two human prostate cancer cell lines were examined—LnCap and PC3.

[2] = tested on: LnCap prostate cancer cells; assay: Etoposide in Neowater or deionized water, surviving cells by XTT dye uptake, LnCap; assay type: cell-based, human; conditions: 24 hours incubation, FIG. 1A
Text: as §1

Structure (SMILES): COc1cc([C@@H]2c3cc4c(cc3[C@@H](O[C@@H]3O[C@@H]5CO[C@@H](C)O[C@H]5[C@H](O)[C@H]3O)[C@H]3COC(=O)[C@H]23)OCO4)cc(OC)c1O [etoposide, Etoposide]
- proliferation of cancer cells (cell growth) [1]: dose-dependent decrease
- proliferation of cancer cells (cell growth) [2]: dose-dependent decrease
